Laboratory results as given in paper PMC8910432 (International Journal of Molecular Sciences, 2022).
Like-named read-outs stand apart in the source and are kept apart here.

How the values were obtained:
[1] = target: SARS-CoV-2 3CLpro (Severe acute respiratory syndrome coronavirus 2, UniProt P0DTD1); assay: biochemical; type: biochemical; settings: for concentration from which inhibitory effect on 3CLpro activity is significant: tested 0.1 to 100 µM
[2] = target: T1, 3CLpro (Severe acute respiratory syndrome coronavirus 2, UniProt P0DTD1); settings: cited from earlier work; for IC50: read-out: IC50 3CLpro
[3] = system: mice; settings: even at high dosages; cited from earlier work
[4] = target: T1, 3CLpro; settings: cited from earlier work; for binding free energy of 3CLpro: ref 66
[5] = target: T1, 3CLpro; assay: biochemical; settings: SPR, 1:1 binding model; read-out: KD TA/3CLpro
[6] = target: T1, 3CLpro; type: binding; settings: TA 10 to 500 µM, 30 min
[7] = target: T1, 3CLpro; settings: FRET-based assay; cited from earlier work
[8] = design: method as in PMID 12111394, PMID 16526653; settings: ref 38, 39; cited from earlier work

O=C(O[C@@H]1O[C@@H]2COC(=O)c3cc(O)c(O)c(O)c3-c3c(cc(O)c(O)c3O)C(=O)O[C@H]([C@H]1O)[C@@H]2O)c1cc(O)c(O)c(O)c1 [corilagin, β-1-O-galloyl-3,6-(R)-hexahydroxydiphenoyl-D-glucose]
concentration from which inhibitory effect on 3CLpro activity is significant [1]: ≥ 50 µM | inhibition of 3CLpro activity ([2]; ref 33): 88% | toxicity in mice [3]: very low toxicity

cyanidin-3-O-glucoside
MMPBSA binding free energy with 3CLpro ([4]; protomer A): -50.8 kcal/mol | MMPBSA binding free energy with 3CLpro ([4]; protomer B): -42.1 kcal/mol

COc1ccc(-c2cc(=O)c3c(O)cc(O[C@@H]4O[C@H](CO[C@@H]5O[C@@H](C)[C@H](O)[C@@H](O)[C@H]5O)[C@@H](O)[C@H](O)[C@H]4O)cc3o2)cc1 [acaciin]
free energy of the 3CLpro complex ([4]; ref 67): -27.61 kcal/mol

O=C(O[C@H]1Cc2c(O)cc(O)cc2OC1c1cc(O)c(O)c2c(=O)c(O)cc(C3Oc4cc(O)cc(O)c4C[C@H]3O)cc12)c1cc(O)c(O)c(O)c1 (stereo partly drawn) [3-isotheaflavin-3-gallate, reference compound]
IC50 [2]: 7000 nM

O=C(OC[C@H]1OC(OC(=O)c2cc(O)c(O)c(OC(=O)c3cc(O)c(O)c(O)c3)c2)[C@H](OC(=O)c2cc(O)c(O)c(OC(=O)c3cc(O)c(O)c(O)c3)c2)[C@@H](OC(=O)c2cc(O)c(O)c(OC(=O)c3cc(O)c(O)c(O)c3)c2)[C@@H]1OC(=O)c1cc(O)c(O)c(OC(=O)c2cc(O)c(O)c(O)c2)c1)c1cc(O)c(O)c(OC(=O)c2cc(O)c(O)c(O)c2)c1 (stereo partly drawn) [TA, 1,2,3,4,6-penta-O-{3,4-dihydroxy-5-((3,4,5-trihydroxybenzoyl)oxy)benzoyl}-D-glucopyranose]
reduction of 3CLpro activity ([1]; at 10 µM): up to 95% | IC50 ([1]; this study): 1000 nM | Kd [5]: 57.5 nM | TA adsorption onto 3CLpro (QCMD) [6]: TA adsorption is observed to increase with higher TA concentrations | IC50 ([2]; lower end of literature range): 2100 nM | IC50 [2]: 3000 nM | inhibition of 3CLpro activity ([2]; ref 35, 36, 37): 100% | IC50 ([2]; upper end of literature range): 9000 nM | IC50 [7]: 13400 nM | solubility in water [8]: highly soluble

O=C(OC[C@H]1O[C@@H](OC(=O)c2cc(O)c(O)c(O)c2)[C@H](O)[C@@H](OC(=O)c2cc(O)c(O)c(O)c2)[C@@H]1O)c1cc(O)c(O)c(O)c1 [TGG, 1,3,6-tri-O-galloyl-β-D-glucose]
concentration from which inhibitory effect on 3CLpro activity is significant [1]: ≥ 50 µM

(−)-epicatechin-3-O-gallate [ECG]
IC50 [2]: 847 ± 5 nM | MMPBSA binding free energy with 3CLpro ([4]; ref 33): -41.5 ± 5.1 kcal/mol | MMPBSA binding free energy with 3CLpro ([4]; ref 68): -46.03 ± 6.48 kcal/mol

O=c1cc(-c2ccc(O)c(-c3c(O)cc(O)c4c(=O)cc(-c5ccc(O)cc5)oc34)c2)oc2cc(O)cc(O)c12 [amentoflavone]
binding free energy of 3CLpro [4]: -32.14 ± 4.73 kcal/mol

C[C@@H]1O[C@@H](OC[C@H]2O[C@@H](Oc3c(-c4ccc(O)c(O)c4)oc4cc(O)cc(O)c4c3=O)[C@H](O)[C@@H](O)[C@@H]2O)[C@H](O)[C@H](O)[C@H]1O [rutin]
binding free energy of 3CLpro [4]: -30.96 ± 5.56 kcal/mol

CCC(CC)COC(=O)[C@H](C)N[P@](=O)(OC[C@H]1O[C@@](C#N)(c2ccc3c(N)ncnn23)[C@H](O)[C@@H]1O)Oc1ccccc1 [remdesivir]
binding free energy of 3CLpro [4]: -26.67 ± 3.39 kcal/mol
